Experimental data published in patent US8178506B2, “Oligomeric compounds and compositions for use in modulation of small non-coding RNAs” (Regulus Therapeutics Inc., priority 2003, dated 2012).
In the oligonucleotide strings, read from the 5' end, every base follows the letter of its sugar. An asterisk marks phosphorothioate; unmarked linkages are phosphodiester. Other units and linkages are bracketed, terminal groups are in braces. A string of capitals states the bases alone. e = 2'-O-(2-methoxyethyl) (MOE); [5mC] = 5-methylcytosine

Experiments:
[1] = tested on: mir-15a miRNA; experiment: pGL3-mir-15a sensor luciferase assay in HeLa cells; format: cell-based, human; settings: for Relative luciferase activity: pGL3-mir-15a sensor-expressing HeLa cells
From the text: In order to assess the ability of miRNAs to bind predicted miRNA binding sites and regulate the expression of the luciferase reporter, in some embodiments, expression systems based on the pGL3-Control (Promega Corp., Madison Wis.) reporter vector and comprising either a mir-15a, mir-21, or a mir-23b miRNA binding site were developed and used in transient transfections of HeLa cells to determine whether the endogenous mir-15a, mir-21, or mir-23b miRNAs, respectively, could repress luciferase reporter gene expression.
The pGL3-mir-15a sensor plasmid was created by cloning the sequence ([…]; SEQ ID NO: 369), complementary to the mir-15a miRNA, into the Xba site of the pGL3-Control plasmid, placing the potential miRNA-binding site in the 3′UTR of the luciferase reporter. This reporter plasmid was used to transfect HeLa cells and it was observed that the endogenous mir-15a miRNA was able to inhibit luciferase expression from the pGL3-mir-15a sensor plasmid. Thus, to further evaluate the ability of the mir-15a miRNA to bind this target site encoded by the pGL3-mir-15a sensor plasmid, and to assess the ability of oligomeric compounds to interfere with mir-15a-mediated silencing, pGL3-mir-15a sensor-expressing HeLa cells were treated with varying concentrations (3-, 10- or 30 nM) of the following oligomeric compounds: ISIS Number 327951 (SEQ ID NO: 369) is a uniform 2′-MOE compound targeting the mature mir-15a-1 miRNA. ISIS Numbers 356213 (SEQ ID NO: 878), 356215 (SEQ ID NO: 879), 356216 (SEQ ID NO: 880), 356218 (SEQ ID NO: 881), 356221 (SEQ ID NO: 882), 356227 (SEQ ID NO: 883) and 356229 (SEQ ID NO: 884) are phosphorothioate, uniform 2′-MOE oligomeric compounds designed and synthesized to target the entire length of the mir-15a pri-miRNA molecule (described in detail in Example 28, below). […] The data presented in Table 42 are the average of three trials and are presented as percent untreated control (luciferase plasmid only, not treated with oligomeric compound) luciferase expression, normalized to pRL-CMV levels.

[2] = tested on: mir-15a pri-miRNA; experiment: mir-15a pri-miRNA expression in T47D cells (real-time RT-PCR); format: cell-based, human
From the text: The gapmer oligomeric compounds targeting the mir-15b and mir-15-a-1 mature miRNAs described above were also transfected into T47D cells according to standard procedures. In addition, uniform 2′-MOE and 2′-MOE gapmer oligomeric compounds targeting the mature mir-15a-1 and mir-15b miRNAs were also transfected into T47D cells, for analysis of their effects on mir-15a-1 and mir-15b pri-miRNA levels. The oligomeric compounds ISIS Number 327927 (SEQ ID NO: 345), a uniform 2′-MOE compound and ISIS Number 345391 (SEQ ID NO: 345), a 2′-MOE 5-10-7 gapmer compound, both target mir-15b. The oligomeric compounds ISIS Number 327951 (SEQ ID NO: 369), a uniform 2′-MOE compound, and ISIS Number 345411 (SEQ ID NO: 369), a 2′-MOE 5-10-7 gapmer compound, both target mir-15a-1. Oligomeric compounds ISIS Number 129686 ([…]; SEQ ID NO: 901), and ISIS Number 129691 ([…]; SEQ ID NO:902), both universal scrambled controls, as well as ISIS Number 116847 ([…]; SEQ ID NO: 844) targeting an unrelated gene, PTEN, were used as negative controls. ISIS Numbers 129686, 129691, and 116847 are phosphorothiated 2′-MOE 5-10-5 gapmers, and all cytosines are 5-methylcytosines. T47D cells (seeded in 12-well plates) were treated with these oligomeric compounds, and RNA was isolated from the treated cells by lysing in 1 mL TRIZOL™ (Invitrogen) and total RNA was prepared using the manufacturer's recommended protocols. To assess the effects of these compounds on expression of the mir-15a or mir-15b pri-miRNA molecules, real-time RT-PCR analysis was performed using either the primer/probe set specific for the mir-15a pri-miRNA molecule described above, or a primer probe set specific for the mir-15b pri-miRNA molecule: ISIS 339320 ([…]; SEQ ID NO: 903) was used as the forward primer for the mir-15b pri-miRNA, ISIS 339321 ([…] ACTGT; SEQ ID NO: 904) was used as the reverse primer for the mir-15b pri-miRNA, and ISIS 339322 ([…]; SEQ ID NO: 905) was used as the probe. Total RNA was quantified using RiboGreen™ RNA quantification reagent (Molecular Probes, Inc. Eugene, Oreg.), expression levels observed for each target were normalized to 5.8S rRNA, and values are expressed relative to the untreated control. Inhibition of expression of the mir15a or mir-15b pri-miRNA molecules upon treatment with these oligomeric compounds is was assessed and expressed as a percentage of RNA levels in untreated control cells.
Using the real-time RT-PCR methods described, the expression levels of the mir-15a pri-miRNA were compared in T47D cells treated with the nested series of uniform 2′-MOE oligomeric compounds, targeting and spanning the entire length of the mir-15a pri-miRNA. The region encompassing the mir-15a primary transcript (the complement of nucleotides 31603159 to 31603468 of GenBank Accession number NT—024524.13; AAATAATTATG […]) is incorporated herein as SEQ ID NO: 906. ISIS Number 356215 (SEQ ID NO: 879) targets a region flanking and immediately 5′ to the predicted 5′ Drosha cleavage site in the mir-15a pri-miRNA. ISIS Number 356218 (SEQ ID NO: 881) targets aregion in the loop of the mir-15a pri-miRNA. ISIS 356227 (SEQ ID NO: 883) targets a region flanking and immediately 3′ to the predicted 3′ Drosha cleavage site in the mir-15a pri-miRNA. Additionally, oligomeric compound ISIS 327951 (SEQ ID NO: 369), a uniform 2′-MOE compound targeting the mature mir-15a-1 miRNA, was tested for comparison. Oligomeric compounds ISIS 327901 (SEQ ID NO: 319) targeting the mature mir-143 miRNA; ISIS 129690, ([…]; SEQ ID NO: 907), a phosphorothioate 5-10-5 MOE gapmer used as a universal scrambled control; and ISIS 116847 ([…]; SEQ ID NO: 844), a uniform 5-10-52′-MOE gapmer targeting an unrelated gene, PTEN, were used as negative controls. Using the transfection methods previously described, T47D cells were treated with 100 nM of each of these oligomeric compounds. […]

[3] = tested on: mir-30a pri-miRNA; experiment: mir-30a luciferase reporter (pGL3C-M30-4X) assay in 293T cells; format: cell-based, human; settings: 150 nM oligomeric compound, then mir-30a pri-miRNA mimic 200 nM, pGL3C-M30-4X normalized to pRL-CMV
From the text: In one embodiment of the invention, oligomeric compounds targeting the hairpin structure of mir-30a pri-miRNA were designed and tested for their effects on miRNA signaling in 293T cells (American Type Culture Collection (Manassas, Va.)).
A synthetic DNA fragment comprised of four tandem repeats of the target site for mir-30a was cloned into the vector pGL3-C (purchased from Promega Corp., Madison Wis.) at the unique XbaI site (pGL3C-M30-4X). This places the target site in the 3′UTR of the luciferase reporter vector. An oligomeric compound mimicking the mir-30a pri-miRNA ([…] […], herein incorporated as SEQ ID NO: 1749) was in vitro transcribed using T7 RNA polymerase and a DNA template produced by PCR (the T7 promoter is shown in bold).
On the day prior to the experiment 24-well plates were seeded with 293T cells at 50% confluency. The following morning cells were treated with oligomeric compounds targeted to the mir-30a pri-miRNA mimic. All of the compounds are 20 nucleobases in length having either a phosphorothioate backbone throughout (PS) or a phosphodiester backbone throughout (PO). […] All cytidine residues are 5-methylcytidines. The remaining compounds in the table have 2′-methoxyethoxy (MOE) nucleotides throughout with either a phosphorothioate (PS) or phosphodiester (PO) internucleoside linkages.
Cells were washed once with PBS then oligomeric compounds were added to triplicate wells at 150 nM in OPTI-MEM™ media and 4.5 μl/ml LIPOFECTIN™ reagent (Invitrogen Corporation, Carlsbad, Calif.). After 3 hours, the media was removed, and the cells were treated with the mir-30a pri-miRNA mimic at 200 nM in OPTI-MEM™ with 6 μl/ml LIPOFECTIN™ reagent. After 3 hours the media was removed from the cells. The reporter plasmid, pGL3C-M30-4X, was then transfected using SuperFect reagent. 20 μg of pGL3C-M30-4X and 2 μg of pRL-CMV, a plasmid expressing Renilla luciferase, were suspended in 600 μL of serum-free DMEM to which 120 μl of Superfect was added. After a 5 minute incubation, 6 mls of DMEM+10% FCS was added. 125 μL of the plasmid/SuperFect suspension was added to each well. After a 2 hour incubation cells were washed and fresh growth media added. Cells were incubated overnight.
The following morning the media was removed and the cells were lysed in 120 μL passive lysis buffer (PLB; Promega). 40 μL of the lysate was then assayed for Photinus (PL) and Renilla (RL) luciferases using a Dual Luciferase Assay kit (Promega) according to the manufacturer's protocol. The results below are given as percent pGL3C-M30-4× expression (PL) normalized to pRL-CMV expression (RL). The 20-nucleobase oligonucleotide random-mer ISIS Number 29848 was used as a negative control.

[4] = tested on: HuVECs; experiment: Endothelial tube formation assay in HuVECs; settings: 75 nM oligomeric compound, Table 59
Description: In some embodiments, HUVECs are used to measure the effects of oligomeric compounds of the invention on endothelial tube formation activity. The tube formation assay is performed using an in vitro Angiogenesis Assay Kit (Chemicon International, Temecula, Calif.).
Untreated control cells receive LIPOFECTIN™ only.
Approximately fifty hours after transfection, cells are transferred to 96-well plates coated with ECMatrix™ (Chemicon International). Under these conditions, untreated HUVECs form tube-like structures. After an overnight incubation at 37° C., treated and untreated cells are inspected by light microscopy. Tube formation in cells treated with oligomeric compounds is compared to that in untreated control cells. Individual wells are assigned discrete scores from 1 to 5 depending on the extent of tube formation. A score of 1 refers to a well with no tube formation while a score of 5 is given to wells where all cells are forming an extensive tubular network.
In one embodiment, primary human umbilical vein endothelial cells (HuVECs) were used to measure the effects of oligomeric compounds targeted to miRNAs on tube formation activity. HuVECs were routinely cultured in EBM (Clonetics Corporation, Walkersville, Md.) supplemented with SingleQuots supplements (Clonetics Corporation, Walkersville, Md.). […] HuVECs are plated at 3000 cells/well in 96-well plates. One day later, cells are transfected with oligomeric compounds. The tube formation assay is performed using an in vitro Angiogenesis Assay Kit (Chemicon International, Temecula, Calif.).
ISIS 29248 and ISIS 196103 are chimeric 5-10-52′-MOE gapmer oligonucleotides. […] All cytidine residues are 5-methylcytidines. ISIS 342672 (SEQ ID NO: 789) contains 13 mismatches with respect to the mature mir-143 miRNA, and was also used as a negative control. ISIS 342672 is a uniform 2′-MOE phosphorothioate oligomeric compound 22 nucleotides in length. All cytidine residues are 5-methylcytidines.
Oligomeric compound was mixed with LIPOFECTIN™ (Invitrogen Life Technologies, Carlsbad, Calif.) in OPTI-MEM™ (Invitrogen Life Technologies, Carlsbad, Calif.) to achieve a final concentration of 75 nM of oligomeric compound and 2.25 μg/mL LIPOFECTIN™. Before adding to cells, the oligomeric compound, LIPOFECTIN™ and OPTI-MEM™ were mixed thoroughly and incubated for 0.5 hrs. Untreated control cells received LIPOFECTIN™ only. […] Compounds targeted to miRNAs were tested in triplicate, and ISIS 29848 was tested in up to six replicates. […] 100 μL of full growth medium was added to each well. Fifty hours after transfection, cells are transferred to 96-well plates coated with ECMa-trix™ (Chemicon Inter-national). Under these conditions, untreated HuVECs form tube-like structures.

[5] = tested on: IL-12 mRNA; experiment: IL-12 mRNA in LPS-activated primary murine macrophages; format: cell-based, mouse; settings: normalized to LPS-treated cells without oligomeric compound

CACAAACCATTATGTGCTGCTA (chemistry not given here) [ISIS 327951, uniform 2′-MOE PS; targets mir-15a-1]
luciferase activity from the pGL3-mir-15a sensor plasmid ([1]; HeLa, 3-, 10- or 30 nM): blocked the inhibitory effect of mir-15a
levels of the mir-15a pri-miRNA molecule ([2]; 100 nM): stimulate an increase in levels of the mir-15a pri-miRNA molecule

356213 (eT*eA*eT*eA*eA*e[5mC]*eA*eT*eT*eG*eA*eT*eG*eT*eA*eA*eT*eA*eT*eG) [compound 356213]
Relative luciferase activity ([1]; 3 nM): 101.2
Relative luciferase activity ([1]; 10 nM): 80.5
Relative luciferase activity ([1]; 30 nM): 109.9
mir-15a pri-miRNA expression % UTC ([2]; real-time RT-PCR): 171 % UTC

327874 (antisense eG*e[5mC]*eT*eG*e[5mC]*eA*eA*eA*e[5mC]*eA*eT*e[5mC]*e[5mC]*eG*eA*e[5mC]*eT*eG*eA*eA*eA*eG) [compound 327874]
percent control luciferase expression [3]: 66 percent control
% Activity Relative to UTC (tube formation) [4]: 46.7%
IL-12 mRNA expression, −IFN % UTC ([5]; 300 nM oligomeric compound and LPS, no IFN-gamma pretreatment, single experiment): 202 % UTC
IL-12 mRNA expression, +IFN % UTC ([5]; 300 nM oligomeric compound, stimulation with IFN-gamma and LPS, average of 2 experiments): 15 % UTC
